# Assay results reported in ChEMBL document CHEMBL5131442, “Design and synthesis of Osthole-based compounds as potential Nrf2 agonists” (Bioorg Med Chem Lett, 2022).
# Active and inactive are the calls of the source. The rule behind the calls is not given here.
# Target: T1, Nuclear factor erythroid 2-related factor 2 (Homo sapiens) (UniProt Q16236)
# T1 sequence (whole entry): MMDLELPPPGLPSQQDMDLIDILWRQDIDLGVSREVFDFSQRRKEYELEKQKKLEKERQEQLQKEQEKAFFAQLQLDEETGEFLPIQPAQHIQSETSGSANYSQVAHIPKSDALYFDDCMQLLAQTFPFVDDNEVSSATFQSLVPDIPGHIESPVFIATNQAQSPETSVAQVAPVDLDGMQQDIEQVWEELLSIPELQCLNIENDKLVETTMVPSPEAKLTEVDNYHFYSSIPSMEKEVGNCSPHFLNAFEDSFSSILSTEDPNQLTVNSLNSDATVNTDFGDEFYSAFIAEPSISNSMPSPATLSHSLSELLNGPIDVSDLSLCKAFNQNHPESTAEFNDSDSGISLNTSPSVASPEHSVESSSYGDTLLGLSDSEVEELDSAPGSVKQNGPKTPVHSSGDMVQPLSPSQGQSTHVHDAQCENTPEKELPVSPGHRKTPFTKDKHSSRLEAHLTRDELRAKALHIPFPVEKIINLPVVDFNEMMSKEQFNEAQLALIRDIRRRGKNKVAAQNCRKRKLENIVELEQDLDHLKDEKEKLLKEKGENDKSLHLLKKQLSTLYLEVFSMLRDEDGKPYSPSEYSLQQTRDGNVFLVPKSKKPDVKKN
# Test: Agonist activity at Nrf2 (unknown origin) at 10 uM by dual-luciferase reporter gene assay
# Details: filed as agonist
row,fold change (FC),SMILES
1,1.7,CC(C)(C)c1cc(O)ccc1O

# Target: T1, Nuclear factor erythroid 2-related factor 2 (Homo sapiens)
# Test: Agonist activity at Nrf2 (unknown origin) at 20 uM by dual-luciferase reporter gene assay
# Details: filed as agonist
row,fold change (FC),SMILES
1,1.59,COc1ccc2[nH]cc(CC(=O)Oc3ccc4ccc(=O)oc4c3CC=C(C)C)c2c1
2,1.51,CC(C)=CCc1c(OC(=O)Cc2c[nH]c3ccc(C)cc23)ccc2ccc(=O)oc12
3,1.55,CC(C)=CCc1c(OC(=O)Cc2c[nH]c3ccccc23)ccc2ccc(=O)oc12
4,0.79,CC(C)=CCc1c(OC(=O)NCCc2c[nH]c3ccc(Cl)cc23)ccc2ccc(=O)oc12
5,1.41,CC(C)=CCc1c(OC(=O)Cc2c[nH]c3ccc(Br)cc23)ccc2ccc(=O)oc12
6,0.95,CC(C)=CCc1c(OC(=O)NCCc2c[nH]c3ccccc23)ccc2ccc(=O)oc12
7,1.51,COc1ccc2c(CC(=O)Oc3ccc4ccc(=O)oc4c3CC=C(C)C)c[nH]c2c1
8,1.56,COc1ccc2[nH]c(C)c(CC(=O)Oc3ccc4ccc(=O)oc4c3CC=C(C)C)c2c1
9,1.51,CC(C)=CCc1c(OC(=O)Cc2c(C)[nH]c3ccccc23)ccc2ccc(=O)oc12
10,0.95,CC(C)=CCc1c(OC(=O)NCCc2c[nH]c3ccc(C)cc23)ccc2ccc(=O)oc12
11,0.98,COc1ccc2[nH]cc(CCNC(=O)Oc3ccc4ccc(=O)oc4c3CC=C(C)C)c2c1
12,1.65,CC(C)=CCc1c(OC(=O)Cc2c[nH]c3cc(Cl)ccc23)ccc2ccc(=O)oc12
13,0.73,COc1ccc2c(CC(C)NC(=O)Oc3ccc4ccc(=O)oc4c3CC=C(C)C)c[nH]c2c1 (centres undefined)

# The next lines start with the molecule.
row,SMILES,fold change (FC)
1,CC(C)=CCc1c(OC(=O)NCCc2c(C)[nH]c3ccccc23)ccc2ccc(=O)oc12,0.61
2,COc1ccccc1-c1cc2cc(Br)c3c(c2oc1=O)CCC(C)(C)O3,1.58
3,Cc1ccc(-c2cc3cc(Br)c4c(c3oc2=O)CCC(C)(C)O4)cc1,1.61
4,COc1ccc2ccc(=O)oc2c1CC=C(C)C,1.18
5,CC1(C)CCc2c(c(Br)cc3cc(-c4ccccc4)c(=O)oc23)O1,2.57
6,CC1(C)CCc2c(c(Br)cc3cc(-c4cccc(C(F)(F)F)c4)c(=O)oc23)O1,1.52
7,COc1cccc(-c2cc3cc(Br)c4c(c3oc2=O)CCC(C)(C)O4)c1,1.41
8,CC1(C)CCc2c(c(Br)cc3cc(-c4ccc(C(F)(F)F)cc4)c(=O)oc23)O1,2.04
9,CC1(C)CCc2c(c(Br)cc3cc(-c4ccc(F)cc4)c(=O)oc23)O1,1.26
10,CC1(C)CCc2c(c(Br)cc3cc(-c4ccc(OC(F)(F)F)cc4)c(=O)oc23)O1,1.69
11,COc1ccc(-c2cc3cc(Br)c4c(c3oc2=O)CCC(C)(C)O4)cc1,1.53

# Target: T2, Nuclear factor erythroid 2-related factor 2 (Homo sapiens, UniProt Q16236)
# T2 sequence (Q16236 whole entry): T1 sequence (whole entry)
# Test: Activation of Nrf2 in HEK293T cells
# Type: cell-based
# Details: not given
row,EC50,SMILES
1,2.9 µM,CC1(C)CCc2c(c(Br)cc3cc(-c4ccccc4)c(=O)oc23)O1
2,4.55 µM,CC1(C)CCc2c(c(Br)cc3cc(-c4ccc(C(F)(F)F)cc4)c(=O)oc23)O1

# Target: Kelch-like ECH-associated protein 1 (Homo sapiens) (UniProt Q14145)
# Test: Binding affinity to Keap1 in human A549 cells assessed as thermal stabilization by measuring change in melting temperature at 10 uM by cellular thermal shift assay
# Type: cell-based
# Details: not given
# Kelch-like ECH-associated protein 1 (Homo sapiens), sequence (Q14145 whole entry): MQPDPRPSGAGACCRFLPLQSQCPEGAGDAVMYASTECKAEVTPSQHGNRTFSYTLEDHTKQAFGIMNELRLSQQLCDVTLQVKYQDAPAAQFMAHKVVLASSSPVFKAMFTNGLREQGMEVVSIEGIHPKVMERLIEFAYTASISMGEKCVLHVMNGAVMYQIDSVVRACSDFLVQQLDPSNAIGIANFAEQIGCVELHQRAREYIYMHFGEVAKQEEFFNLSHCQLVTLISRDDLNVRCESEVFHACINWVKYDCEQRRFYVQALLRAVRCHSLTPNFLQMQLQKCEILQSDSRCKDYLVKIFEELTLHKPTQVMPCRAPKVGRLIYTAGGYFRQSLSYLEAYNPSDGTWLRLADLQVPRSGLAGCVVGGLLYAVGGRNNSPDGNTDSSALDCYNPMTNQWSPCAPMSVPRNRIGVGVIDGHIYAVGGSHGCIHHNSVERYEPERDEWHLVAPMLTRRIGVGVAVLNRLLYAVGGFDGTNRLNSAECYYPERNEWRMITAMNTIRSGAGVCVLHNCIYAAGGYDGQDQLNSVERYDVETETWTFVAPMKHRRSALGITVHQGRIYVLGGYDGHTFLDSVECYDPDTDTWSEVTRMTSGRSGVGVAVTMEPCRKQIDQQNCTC
row,Activity,SMILES
1,Active,CC1(C)CCc2c(c(Br)cc3cc(-c4ccccc4)c(=O)oc23)O1

# Target: Keap1/Nrf2 (Homo sapiens) (UniProt Q16236+Q14145)
# Test: Inhibition of Keap1-Nrf2 protein-protein interaction in human A549 cells assessed as reduction in Nrf2 ubiquitination by immunoprecipitation analysis
# Type: cell-based
# Details: not given
# Keap1/Nrf2 (Homo sapiens), sequence (Q14145 whole entry, looked up, one chain of several): as the sequence (Q14145 whole entry) above
row,inhibition,SMILES
1,Active,CC1(C)CCc2c(c(Br)cc3cc(-c4ccccc4)c(=O)oc23)O1
